{
  "source": "paper PMC3722588",
  "about": "(Journal of the American Chemical Society, 2013)",
  "molecular_target": "T184C MMP12 catalytic domain (Mus musculus, UniProt P34960, T184C)",
  "sequence (P34960 29-267 T184C)": "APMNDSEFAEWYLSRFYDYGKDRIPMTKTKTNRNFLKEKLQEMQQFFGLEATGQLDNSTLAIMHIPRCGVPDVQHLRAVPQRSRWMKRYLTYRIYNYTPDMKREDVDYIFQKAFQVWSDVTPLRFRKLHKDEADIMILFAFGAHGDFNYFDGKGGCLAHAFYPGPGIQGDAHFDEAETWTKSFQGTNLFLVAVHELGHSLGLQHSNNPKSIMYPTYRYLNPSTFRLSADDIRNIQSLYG",
  "experiment": "Gel labeling of recombinant enzyme spiked in rat liver lysates",
  "assay_type": "binding",
  "conditions": "10 μM pretreatment before TND124, rat liver lysates",
  "data": [
    {"smiles": "CNC(=O)[C@H](Cc1c[nH]c2ccccc12)NC(=O)[C@@H](CC(=O)NO)CC(C)C", "note": "[GM6001]", "values": [
      {"measurement": "Blocking of TND124 labeling by pretreatment", "value": "completely blocked labeling"}
    ]}
  ]
}
